Data taken from patent US20250223260A1, “Substituted Pyrrolidinyl And Piperidinyl Compounds And Related Methods Of Treatment” (Alkermes, Inc., priority 2022, published 2025).

The compounds below were run against T1, human orexin-2 receptor (OX2R) (Homo sapiens, UniProt O43614) (assay: Human OX2R IP1 assay). Conditions: T-Rex CHO cells stably overexpressing human OX2R; IP1 accumulation (HTRF); 1 hr at 37 degrees C.
T1 construct: expressed in transfected cells
T1 sequence (O43614 1-444): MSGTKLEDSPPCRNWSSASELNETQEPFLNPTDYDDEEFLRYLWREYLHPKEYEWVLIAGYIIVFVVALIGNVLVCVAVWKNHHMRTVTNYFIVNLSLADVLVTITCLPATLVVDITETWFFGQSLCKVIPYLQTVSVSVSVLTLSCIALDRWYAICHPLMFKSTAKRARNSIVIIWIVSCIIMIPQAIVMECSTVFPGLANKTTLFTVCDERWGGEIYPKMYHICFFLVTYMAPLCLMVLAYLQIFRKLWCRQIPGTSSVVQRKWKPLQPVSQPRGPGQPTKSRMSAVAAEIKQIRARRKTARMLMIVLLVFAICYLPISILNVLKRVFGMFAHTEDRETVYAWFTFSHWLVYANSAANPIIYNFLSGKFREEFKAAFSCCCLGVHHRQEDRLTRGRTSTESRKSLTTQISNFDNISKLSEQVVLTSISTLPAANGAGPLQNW
Assay type: cell-based
Procedure: T-Rex CHO cells stably overexpressing the human orexin-2 receptor (OX2R) are induced overnight with 1 μg/mL of doxycycline in a T225 flask. 24 hours post induction, cells are lifted with accutase and plated into a 384-well proxy plate at 30,000 cells/well. Cells are then treated with different test compounds in 1× stimulation buffer containing 10 mM Hepes, 1 mM CaCl2, 0.5 mM MgCl2, 4.2 mM KCl, 146 mM NaCl, 5.5 mM glucose, and 50 mM LiCl, pH 7.4, for 1 hr at 37 degrees C. Following incubation, the reaction is terminated by the addition of detection mix, which is composed of IP1-d2 and anti-IP1-cryptate diluted in lysis buffer as well as 1× stimulation buffer. The plates are allowed to incubate for 1 hour at room temperature and are then read in the EnVision® multimode plate reader, measuring inositol phosphate levels.
Cisbio IP1 is a cell-based functional assay quantifying the accumulation of inositol monophosphate (IP), a metabolite released as a result of orexin 2 receptor activation through the phospholipase C-Gq signaling pathway. This is a competitive immunoassay in which the IP1 produced by the cells upon receptor activation competes with the IP1 analog coupled to the d2 fluorophore (acceptor) for binding to an anti-IP1 monoclonal antibody labeled with Eu cryptate (donor). The measured HTRF-FRET based signal is inversely proportional to the IP1 concentration produced.
The EC50 values reported in Table 2 were obtained according to the human OX2R IP1 assay described above. Data are the mean EC50 values ±S.E.M.

| EC50 [µM] | SMILES |
| --- | --- |
| 0.1 to 10 | CC(C)(O)C(=O)N1CC[C@@H](NS(C)(=O)=O)[C@@H](OC[C@H]2CC[C@@H](c3ccccc3)CC2)C1 (single isomer, unassigned) [Compound 38] |
| > 10 | Cn1ccc(N2CC[C@@H](NS(C)(=O)=O)[C@@H](OC[C@H]3CC[C@@H](c4ccccc4)CC3)C2)n1 (single isomer, unassigned) [Compound 48] |
| > 10 | CS(=O)(=O)N[C@@H]1CCN(C2COC2)C[C@@H]1OC[C@H]1CC[C@@H](c2ccccc2)CC1 (single isomer, unassigned) [Compound 52] |
| 0.1 to 10 | CS(=O)(=O)N[C@@H]1CCN(C(=O)C2(F)CCC2)C[C@@H]1OCC1CCC(c2ccccc2)CC1 (single isomer, unassigned) [Compound 50] |
| > 10 | Cn1cnc(N2CC[C@@H](NS(C)(=O)=O)[C@@H](OC[C@H]3CC[C@@H](c4ccccc4)CC3)C2)c1 (single isomer, unassigned) [Compound 60] |
| 0.1 to 10 | CS(=O)(=O)N[C@@H]1CCN(C(=O)C2CC2)C[C@@H]1OC[C@H]1CC[C@@H](c2ccccc2)CC1 (single isomer, unassigned) [Compound 37, N-[cis-1-cyclopropanecarbonyl-3-[(cis-4-phenylcyclohexyl)methoxy]piperidin-4-yl]methanesulfonamide] |
| > 10 | CS(=O)(=O)N[C@@H]1CCN(CC2(F)CCC2)C[C@@H]1OCC1CCC(c2ccccc2)CC1 (single isomer, unassigned) [Compound 70] |
| 0.1 to 10 | CS(=O)(=O)N[C@H]1CCN(CC2(F)CCC2)C[C@H]1OCC1CCC(c2ccccc2)CC1 (single isomer, unassigned) [Compound 69] |
| < 0.1 | CS(=O)(=O)N[C@@H]1CCN(C(=O)C2(F)CC2)C[C@@H]1OC[C@H]1CC[C@@H](c2ccccc2)CC1 (single isomer, unassigned) [Compound 67] |
| 0.1 to 10 | COC1(C(=O)N2CC[C@H](NS(C)(=O)=O)[C@H](OC[C@H]3CC[C@@H](c4ccccc4)CC3)C2)CCC1 [Compound 42] |
| < 0.1 | CS(=O)(=O)N[C@@H]1CCN(C(=O)C2(O)CCC2)C[C@@H]1OC[C@H]1CC[C@@H](c2ccccc2)CC1 (single isomer, unassigned) [Compound 43] |
| 0.1 to 10 | CC1(C(=O)N2CC[C@H](NS(C)(=O)=O)[C@H](OCC3CCC(c4ccccc4)CC3)C2)COC1 (single isomer, unassigned) [Compound 45] |
| 0.1 to 10 | CS(=O)(=O)N[C@@H]1CCN(C(=O)C2CCC2)C[C@@H]1OCC1CCC(c2ccccc2)CC1 (single isomer, unassigned) [Compound 66] |
| 0.1 to 10 | CS(=O)(=O)N[C@@H]1CCN(C(=O)C2(F)CC2)C[C@@H]1OCC1CCC(c2ccccc2)CC1 (single isomer, unassigned) [Compound 68] |
| > 10 | C[C@@H](C1COC1)N1CC[C@@H](NS(C)(=O)=O)[C@@H](OCC2CCC(c3ccccc3)CC2)C1 (single isomer, unassigned) [Compound 62] |
| > 10 | CS(=O)(=O)N[C@@H]1CCN(C(=O)C2(O)CCC2)C[C@@H]1OCC1CCC(c2ccccc2)CC1 (single isomer, unassigned) [Compound 44] |
| > 10 | CS(=O)(=O)N[C@H]1CCN(C2COC2)C[C@H]1OC[C@H]1CC[C@@H](c2ccccc2)CC1 (single isomer, unassigned) [Compound 51] |

| EC50 [µM] | SMILES |
| --- | --- |
| > 10 | CS(=O)(=O)N[C@@H]1CCN(CC2COC2)C[C@@H]1OC[C@H]1CC[C@@H](c2ccccc2)CC1 (single isomer, unassigned) [Compound 58] |
| 0.1 to 10 | CS(=O)(=O)N[C@@H]1CCN(c2cccnn2)C[C@@H]1OC[C@H]1CC[C@@H](c2ccccc2)CC1 (single isomer, unassigned) [Compound 56] |
| 0.1 to 10 | Cn1ccnc1N1CC[C@@H](NS(C)(=O)=O)[C@@H](OC[C@H]2CC[C@@H](c3ccccc3)CC2)C1 (single isomer, unassigned) [Compound 54] |
| 0.1 to 10 | Cn1ccc(N2CC[C@H](NS(C)(=O)=O)[C@H](OC[C@H]3CC[C@@H](c4ccccc4)CC3)C2)n1 (single isomer, unassigned) [Compound 47] |
| < 0.1 | CS(=O)(=O)N[C@H]1CCN(C(=O)C2CCC2)C[C@H]1OCC1CCC(c2ccccc2)CC1 (single isomer, unassigned) [Compound 65] |
| 0.1 to 10 | COC(=O)N1CC[C@H](NS(C)(=O)=O)[C@H](OC[C@H]2CC[C@@H](c3ccccc3)CC2)C1 (single isomer, unassigned) [Compound 40] |
| < 0.1 | CS(=O)(=O)N[C@H]1CCN(C(=O)C2(F)CCC2)C[C@H]1OCC1CCC(c2ccccc2)CC1 (single isomer, unassigned) [Compound 49] |
| > 10 | Cn1ccnc1N1CC[C@H](NS(C)(=O)=O)[C@H](OCC2CCC(c3ccccc3)CC2)C1 (single isomer, unassigned) [Compound 53] |
| > 10 | COC(=O)N1CC[C@@H](NS(C)(=O)=O)[C@@H](OC[C@H]2CC[C@@H](c3ccccc3)CC2)C1 (single isomer, unassigned) [Compound 41] |
| > 10 | CS(=O)(=O)N[C@H]1CCN(CC2COC2)C[C@H]1OC[C@H]1CC[C@@H](c2ccccc2)CC1 (single isomer, unassigned) [Compound 57] |
| 0.1 to 10 | Cn1cnc(N2CC[C@H](NS(C)(=O)=O)[C@H](OCC3CCC(c4ccccc4)CC3)C2)c1 (single isomer, unassigned) [Compound 59] |
| < 0.1 | CS(=O)(=O)N[C@H]1CCN(c2cccnn2)C[C@H]1OC[C@H]1CC[C@@H](c2ccccc2)CC1 (single isomer, unassigned) [Compound 55] |
| 0.1 to 10 | CS(=O)(=O)N[C@H]1CCN(c2ncco2)C[C@H]1OC[C@H]1CC[C@@H](c2ccccc2)CC1 (single isomer, unassigned) [Compound 39, N-(cis-1-(oxazol-2-yl)-3-((cis-4-phenylcyclohexyl)methoxy)piperidin-4-yl)methanesulfonamide] |
| > 10 | CC1(C(=O)N2CC[C@@H](NS(C)(=O)=O)[C@@H](OCC3CCC(c4ccccc4)CC3)C2)COC1 (single isomer, unassigned) [Compound 46] |
| > 10 | C[C@H](C1COC1)N1CC[C@H](NS(C)(=O)=O)[C@H](OCC2CCC(c3ccccc3)CC2)C1 (single isomer, unassigned) [Compound 63] |
| > 10 | C[C@@H](C1COC1)N1CC[C@H](NS(C)(=O)=O)[C@H](OCC2CCC(c3ccccc3)CC2)C1 (single isomer, unassigned) [Compound 61] |
| > 10 | C[C@H](C1COC1)N1CC[C@@H](NS(C)(=O)=O)[C@@H](OCC2CCC(c3ccccc3)CC2)C1 (single isomer, unassigned) [Compound 64] |
